From ChEMBL document CHEMBL4808173, “Discovery of Novel Benzimidazole and Indazole Analogues as Tubulin Polymerization Inhibitors with Potent Anticancer Activities” (J Med Chem, 2021)
The source made the active and inactive calls. The rule behind the calls is not given here.

Key:
A549 = test: Antiproliferative activity against human A549 cells assessed as reduction in cell viability measured after 48 hrs by MTT assay; assay type: functional, cell-based; conditions: A549, 48 h
HeLa = test: Antiproliferative activity against human HeLa cells assessed as reduction in cell viability measured after 48 hrs by MTT assay; assay type: functional, cell-based
B16-F10 [1] = test: Antiproliferative activity against mouse B16-F10 cells assessed as reduction in cell viability measured after 48 hrs by MTT assay; assay type: functional, cell-based; conditions: B16-F10, 48 h
MCF7 = test: Antiproliferative activity against human MCF7 cells assessed as reduction in cell viability measured after 48 hrs by MTT assay; assay type: functional, cell-based; conditions: MCF7, 48 h
A2780/Taxol [2] = test: Antiproliferative activity against human A2780T cells assessed as reduction in cell viability measured after 48 hrs by MTT assay; assay type: functional, cell-based
B16-F10 [3] = test: Antitumor activity against mouse B16-F10 cells inoculated in BALB/c mouse assessed as tumor growth inhibition at 10 mg/kg, ip qd for 14 days by caliper method relative to control; assay type: functional; conditions: 336 h, time 14 day, read-out: TGI
A2780/Taxol [4] = test: Inhibition of colony formation in human A2780T cells assessed as decrease in colonies at 100 nM measured after 24 hrs by photographic imaging analysis; assay type: functional, cell-based
[5] = Resistance index, ratio of IC50 for antiproliferative activity against human A2780T cells assessed as reduction in cell viability measured after 48 hrs by MTT assay to IC50 for antiproliferative activity against human A2780S cells assessed as reduction in cell viability measured after 48 hrs by MTT assay; assay type: functional
A2780S = test: Antiproliferative activity against human A2780S cells assessed as reduction in cell viability measured after 48 hrs by MTT assay; assay type: functional, cell-based

SMILES	IC50 (A549) [µM]	IC50 (HeLa) [µM]	IC50 (B16-F10 [1]) [µM]	IC50 (MCF7) [µM]	IC50 (A2780/Taxol [2]) [µM]	inhibition in vivo at 10 mg/kg (B16-F10 [3]) [%]	inhibition (A2780/Taxol [4])	Ratio IC50 [5]	IC50 (A2780S) [µM]
COc1cc(-c2ccc3[nH]nc(-c4ccc(C(=N)NO)cc4)c3c2)cc(OC)c1OC	> 10	> 10	> 10	> 10					
CC(=O)O[C@H]1C(=O)[C@@]2(C)[C@H]([C@H](OC(=O)c3ccccc3)[C@]3(O)C[C@H](OC(=O)[C@H](O)[C@@H](NC(=O)c4ccccc4)c4ccccc4)C(C)=C1C3(C)C)[C@]1(OC(C)=O)CO[C@@H]1C[C@@H]2O [PACLITAXEL]					3.16	88.7	inactive	421.8	0.0075
CCCCn1ccc2c(-c3nc4c(-c5cc(OC)c(OC)c(OC)c5)cccc4[nH]3)cccc21	> 10	> 10	> 10	> 10					
COc1cc2c(c(OC)c1OC)-c1ccc(OC)c(=O)cc1[C@@H](NC(C)=O)CC2 [COLCHICINE]		0.083	0.083	0.021	0.784				0.0167
COc1ccc(-c2cc3nccc(-c4cc(OC)c(OC)c([Se]C)c4)n3n2)cc1[N+](=O)[O-]	> 10	7.95	7.95	6.19					
COc1cc(-c2cccc3[nH]c(-c4cccc(C(=N)NO)c4)nc23)cc(OC)c1OC	> 10	> 10	> 10	> 10					
COc1cc(-c2ccc3[nH]nc(-c4ccc5c(ccn5C)c4)c3c2)cc(OC)c1OC	> 10	8.03	9.26	9.98					

Continued by falling IC50 (A549), values first:

IC50 (A549) [µM]	IC50 (HeLa) [µM]	IC50 (B16-F10 [1]) [µM]	IC50 (MCF7) [µM]	SMILES	IC50 (A2780/Taxol [2]) [µM]	inhibition in vivo at 10 mg/kg (B16-F10 [3]) [%]	inhibition (A2780/Taxol [4])	Ratio IC50 [5]	IC50 (A2780S) [µM]
7.9	8.62	7.27	> 10	COc1cc(-c2ccc3[nH]nc(-c4cc(OC)c(OC)c(OC)c4)c3c2)cc(OC)c1OC					
6.22	2.02	2.62	0.36	COc1cc(-c2n[nH]c3ccc(-c4ccc5c(cnn5C)c4)cc23)cc(OC)c1OC					
1.03	2.07	1.41	1.05	COc1cc(-c2n[nH]c3ccc(-c4ccc(C#N)cc4)cc23)cc(OC)c1OC					
